Measured values published in publication PMC8482776 (ACS Omega, 2021).
≈ marks a conversion by molar mass, not a printed value. Where “and” joins values, the source holds several entries; their conditions need not be identical. Equal entries are not always repeated.

Columns and labels:
[1] = test system: FLC-resistant clinical C. albicans isolate (R2) biofilm; experiment: Antibiofilm MTT reduction assay, strain R2; type: cell-based; conditions: triplicate
[2] = test system: human red blood cells (hRBCs); experiment: Hemolysis assay; type: cell-based; conditions: 100 μg/mL, 2 h at 37 °C
[3] = test system: Asp. nidulans (PTCC 5014); experiment: Microdilution MIC90, strain F; type: cell-based, Aspergillus nidulans; conditions: Aspergillus nidulans, PTCC5014, 48 h, filamentous fungi, 48 h at 37 °C, triplicate
[4] = test system: FLC-resistant clinical Candida isolates (R1–R7); experiment: PMIC, seven FLC-resistant clinical Candida isolates; type: cell-based; conditions: read-out: MIC (growth inhibition concentrations)
M. canis (PTCC 5069) = experiment: Microdilution MIC90, strain O; type: cell-based; conditions: Microsporum canis, PTCC5069, 48 h
HDF normal cells = experiment: MTT cytotoxicity assay, HDF; type: cell-based, human; conditions: HDF normal cell line, up to 100 μg/mL, 48 h
[5] = test system: FLC-resistant clinical Candida isolate R1 (C. albicans); experiment: PMIC90, FLC-resistant isolate R1; type: cell-based; conditions: strain R1, planktonic
[6] = test system: T. schoenleinii (PTCC 5221); experiment: Microdilution MIC90, strain N; type: cell-based; conditions: Trichophyton schoenleinii, PTCC5221, 48 h
[7] = test system: FLC-resistant clinical Candida isolate R5 (C. albicans); experiment: PMIC90, FLC-resistant isolate R5; type: cell-based; conditions: strain R5, planktonic
T. rubrum (PTCC 5143) = experiment: Microdilution MIC90, strain K; type: cell-based, Trichophyton rubrum; conditions: Trichophyton rubrum, PTCC5143, 48 h, filamentous fungi, 48 h at 37 °C, triplicate
[8] = MTT cytotoxicity assay, A-431; type: cell-based, human; conditions: human, A-431 epidermoid carcinoma cells
[9] = test system: C. parapsilosis (ATCC 22019); experiment: Microdilution MIC90, strain D; type: cell-based; conditions: 24 h
[10] = test system: Asp. flavus (ATCC 204304); experiment: Microdilution MIC90, strain G; type: cell-based, Aspergillus flavus; conditions: Aspergillus flavus, ATCC204304, 48 h, filamentous fungi, 48 h at 37 °C, triplicate
C. albicans (ATCC 10231) [11] = experiment: Membrane permeabilization assay; type: cell-based; conditions: 8b, 8c at 1 × MIC, 2 × MIC, 4 × MIC (0.5, 1, 2 μg/mL); AMB 1 μg/mL; 3 h at 28 °C
[12] = test system: FLC-resistant clinical Candida isolate R4 (C. albicans); experiment: PMIC90, FLC-resistant isolate R4; type: cell-based; conditions: strain R4, planktonic
C. albicans (ATCC 10231) [13] = experiment: Murine model of systemic candidiasis; type: in vivo; conditions: neutropenic mice (n = 5), 15 mg/kg oral gavage, left kidney tissue
C. glabrata (ATCC 90030) = experiment: Microdilution MIC90, strain C; type: cell-based; conditions: yeast, 24 h at 37 °C, triplicate
C. krusei (ATCC 6258) = experiment: Microdilution MIC90, strain B; type: cell-based
PANC-1 = experiment: MTT cytotoxicity assay, PANC-1; type: cell-based, human; conditions: PANC-1, at 30 and 60 μg/mL, 48 h
[14] = test system: FLC-resistant clinical Candida isolate R6 (C. albicans); experiment: PMIC90, FLC-resistant isolate R6; type: cell-based; conditions: strain R6, planktonic
[15] = test system: FLC-resistant clinical Candida isolate R7 (C. glabrata); experiment: PMIC90, FLC-resistant isolate R7; type: cell-based; conditions: strain R7, planktonic
[16] = test system: Microsporum gypseum (PTCC 5070); experiment: Microdilution MIC90, strain L; type: cell-based; conditions: filamentous fungi, 48 h at 37 °C, triplicate
[17] = test system: FLC-resistant clinical C. albicans isolate (R1) biofilm; experiment: Antibiofilm MTT reduction assay, strain R1; type: cell-based; conditions: triplicate
C. albicans (ATCC 10231) [18] = experiment: Microdilution MIC90, strain A; type: cell-based; conditions: strain A
[19] = test system: FLC-resistant clinical Candida isolate R3 (C. albicans); experiment: PMIC90, FLC-resistant isolate R3; type: cell-based; conditions: strain R3, planktonic
[20] = test system: C. tropicalis (PTCC 5028); experiment: Microdilution MIC90, strain E; type: cell-based; conditions: 24 h
Asp. terreus (PTCC 5023) = experiment: Microdilution MIC90, strain J; type: cell-based, Aspergillus terreus; conditions: filamentous fungi, 48 h at 37 °C, triplicate
Asp. niger (PTCC 5154) = experiment: Microdilution MIC90, strain I; type: cell-based, Aspergillus niger; conditions: filamentous fungi, 48 h at 37 °C, triplicate
[21] = test system: FLC-resistant clinical Candida isolate R2 (C. albicans); experiment: PMIC90, FLC-resistant isolate R2; type: cell-based; conditions: strain R2, planktonic
C. albicans (ATCC 10231) [22] = experiment: Time-kill assay; type: cell-based; conditions: 24 h period
[23] = test system: Asp. fumigatus (PTCC 5009); experiment: Microdilution MIC90, strain H; type: cell-based; conditions: filamentous fungi, 48 h at 37 °C, triplicate
[24] = test system: T. mentagrophytes (PTCC 5054); experiment: Microdilution MIC90, strain M; type: cell-based; conditions: Trichophyton mentagrophytes, PTCC5054, 48 h
[25] = 24 h, yeast, 24 h at 37 °C, triplicate

Structure (SMILES): COc1ccc(NC(=O)Nc2nnc(SCC(O)(Cn3cncn3)c3ccc(F)cc3F)s2)cc1 (stereo not drawn) [Compound 8b, 1-(5-((2-(2,4-Difluorophenyl)-2-hydroxy-3-(1H-1,2,4-triazol-1-yl)propyl)thio)-1,3,4-thiadiazol-2-yl)-3-(4-methoxyphenyl)urea]
- SMIC90 (sessile minimum inhibitory concentration that reduced the metabolic activity of biofilms by 90%) [1]: 1 µg/mL
- hemolysis (in words) [2]: limited hemolysis
- MIC90 [3]: 8 µg/mL (≈ 15.4 µM)
- MIC [4]: 0.25 to 2 µg/mL (≈ 0.481 to 3.85 µM)
- MIC90 (M. canis (PTCC 5069)): 8 µg/mL (≈ 15.4 µM)
- toxicity (in words) (HDF normal cells): none of the active compounds displayed toxicity
- PMIC90 [5]: 0.25 µg/mL
- MIC90 [6]: 8 µg/mL (≈ 15.4 µM)
- PMIC90 [7]: 2 µg/mL
- MIC90 (T. rubrum (PTCC 5143)): 2 µg/mL (≈ 3.85 µM)
- viability at 48 h, 100 μg/mL [8]: < 50%
- MIC90 [9]: 2 µg/mL (≈ 3.85 µM)
- MIC90 [10]: 8 µg/mL (≈ 15.4 µM)
- cellular uptake of the PI dye (C. albicans (ATCC 10231) [11]): none of our compounds 8b and 8c (at 1 × MIC, 2 × MIC, or 4 × MIC) induced the cellular uptake of the PI dye
- PMIC90 [12]: 1 µg/mL
- kidney fungal burden, CFU/g (mean ± SD) (C. albicans (ATCC 10231) [13]): 414 CFU/g and 414 ± 67.7 ^b CFU/g
- MIC90 (C. glabrata (ATCC 90030); 24 h): 1 to 16 µg/mL (≈ 1.92 to 30.8 µM)
- MIC90 (C. glabrata (ATCC 90030)): 1 μg·mL^–1
- MIC90 (C. krusei (ATCC 6258); [25]): 0.5 µg/mL (≈ 0.962 µM)
- fold greater potency than that of FLC (C. krusei (ATCC 6258); from MIC values): 32 fold
- toxicity (in words) (PANC-1): no toxicity
- PMIC90 [14]: 2 µg/mL
- PMIC90 [15]: 1 µg/mL
- MIC90 [16]: 4 μg·mL^–1
- SMIC90 (sessile minimum inhibitory concentration that reduced the metabolic activity of biofilms by 90%) [17]: 0.5 µg/mL
- MIC90 (C. albicans (ATCC 10231) [18]; [25]): 0.5 µg/mL (≈ 0.962 µM)
- fold greater potency than that of FLC (C. albicans (ATCC 10231) [18]; from MIC values): 32 fold
- PMIC90 [19]: 2 µg/mL
- MIC90 [20]: 1 µg/mL (≈ 1.92 µM)
- MIC90 (Asp. terreus (PTCC 5023); Aspergillus terreus, PTCC5023, 48 h): 2 to 4 µg/mL (≈ 3.85 to 7.7 µM)
- MIC90 (Asp. terreus (PTCC 5023)): 4 μg·mL^–1
- MIC90 (Asp. niger (PTCC 5154); Aspergillus niger, PTCC5154, 48 h): 2 to 4 µg/mL (≈ 3.85 to 7.7 µM)
- MIC90 (Asp. niger (PTCC 5154)): 4 μg·mL^–1
- PMIC90 [21]: 0.5 µg/mL
- time-kill effect at 4 × MIC (C. albicans (ATCC 10231) [22]; at 4 × MIC (2 μg/mL for 8b, 8c; 64 μg/mL for FLC)): fungicidal activity of compound 8b significantly enhanced
- time-kill effect at MIC (C. albicans (ATCC 10231) [22]; at MIC (0.5 μg/mL)): fungicidal effect
- MIC90 ([23]; Aspergillus fumigatus, PTCC5009, 48 h): 2 to 4 µg/mL (≈ 3.85 to 7.7 µM)
- MIC90 [23]: 1 μg·mL^–1
- MIC90 [24]: 4 µg/mL (≈ 7.7 µM)
